Data set [1] has as its target T1, Beta-secretase 1 (Homo sapiens, UniProt P56817). The experiment in a line: Inhibition of ectodomain of BACE1 secreted from […] cells by fluorimetry. It counts as cell-based.
Data set [2] can be described thus: Stability in human serum after 120 mins. The class given is ADME, cell-free. To be noted: read-out: Stability.
A short description of data set [3]: Stability in human serum assessed as half life. The class given is ADME, cell-free.
Data set [4] has as its target T1, Beta-secretase 1. Briefly: Inhibition of full-domain of BACE1 expressed in […] cells. It counts as cell-based.
Data set [5] in a line: Stability in human serum after 160 mins. The class given is ADME, cell-free. To be noted: read-out: Stability.

Numbered stars: 1 amine (or outer) side, 2 acyl side, 3 side chain; on linkers, the order of the positions; unused ones are H or OH. Square brackets hold non-standard residues; d marks the D form. Peptide text beside a SMILES is read from it. X1 = CC(C)C[C@H](N[*:1])P(=O)(O)C[C@@H](C)C(=O)[*:2]

T1 sequence (P56817 whole entry, the tested form may be a part): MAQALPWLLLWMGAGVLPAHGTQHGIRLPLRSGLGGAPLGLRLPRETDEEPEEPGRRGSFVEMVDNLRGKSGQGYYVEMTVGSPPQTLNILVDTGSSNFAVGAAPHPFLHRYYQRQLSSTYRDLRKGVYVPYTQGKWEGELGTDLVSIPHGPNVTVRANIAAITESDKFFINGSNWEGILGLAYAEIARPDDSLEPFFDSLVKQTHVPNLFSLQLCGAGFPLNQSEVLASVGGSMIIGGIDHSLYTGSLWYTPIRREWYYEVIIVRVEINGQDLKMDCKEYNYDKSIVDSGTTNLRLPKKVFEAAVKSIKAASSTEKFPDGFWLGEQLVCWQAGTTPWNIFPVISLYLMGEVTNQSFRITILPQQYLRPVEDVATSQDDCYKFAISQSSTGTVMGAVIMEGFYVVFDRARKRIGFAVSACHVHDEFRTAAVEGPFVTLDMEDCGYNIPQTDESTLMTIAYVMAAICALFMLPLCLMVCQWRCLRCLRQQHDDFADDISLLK

The compound `CC(CP(=O)(O)C1CCCCCC[C@H](NC(=O)[C@@H](N)CCC(=O)O)C(=O)N[C@@H](CC(=O)O)C(=O)N1)C(=O)N[C@H](C(=O)N[C@@H](CCC(=O)O)C(=O)N[C@@H](Cc1ccccc1)C(=O)O)C(C)C` (mixture of isomers; form 4) displayed an IC50 against Beta-secretase 1 [1] of 808 nM. This counts as sub-micromolar.

Regarding `CC(C)C[C@H](NC(=O)[C@@H](N)CCC(=O)O)C(=O)N[C@@H](CC(=O)O)C(=O)N[C@@H](CC(C)C)P(=O)(O)C[C@@H](C)C(=O)N[C@H](C(=O)N[C@@H](CCC(=O)O)C(=O)N[C@@H](Cc1ccccc1)C(=O)O)C(C)C` (H-ELD[X1]VEF-OH), the remaining at 2 h in data set [2] amounted to 20%. Also, in data set [3], the half-life turned out to be 14.8 min. Further, the IC50 against Beta-secretase 1 [4] was 12 nM.

Consider `CC(CP(=O)(O)C1CCCCCC[C@H](NC(=O)[C@@H](N)CCC(=O)O)C(=O)N[C@@H](CC(=O)O)C(=O)N1)C(=O)N[C@H](C(=O)N[C@@H](CCC(=O)O)C(=O)N[C@@H](Cc1ccccc1)C(=O)O)C(C)C` (mixture of isomers; form 3), for which, at Beta-secretase 1 [1], the half-maximal inhibitory concentration (IC50) amounted to 522 nM.

With `CC(CP(=O)(O)C1CCCCCC[C@H](NC(=O)[C@@H](N)CCC(=O)O)C(=O)N[C@@H](CC(=O)O)C(=O)N1)C(=O)N[C@H](C(=O)N[C@@H](CCC(=O)O)C(=O)N[C@@H](Cc1ccccc1)C(=O)O)C(C)C` (mixture of isomers; form 1), the remaining at 160 min in data set [5] worked out at 20%. Besides, the half-life in data set [3] came to 43.9 min. On Beta-secretase 1 [1], this compound yielded an IC50 of 47 nM.

In the case of `CC(CP(=O)(O)C1CCCCCC[C@H](NC(=O)[C@@H](N)CCC(=O)O)C(=O)N[C@@H](CC(=O)O)C(=O)N1)C(=O)N[C@H](C(=O)N[C@@H](CCC(=O)O)C(=O)N[C@@H](Cc1ccccc1)C(=O)O)C(C)C` (mixture of isomers; form 2), at Beta-secretase 1 [1], half-maximal inhibition (IC50) required 320 nM.

The IC50 is the concentration at which inhibition is half-maximal. By half-life is commonly meant how long it takes for the measured level to halve.

For the origin of these results see ChEMBL document CHEMBL1153638, “Prolonged stability by cyclization: Macrocyclic phosphino dipeptide isostere inhibitors of beta-secretase (BACE1)” (Bioorg Med Chem Lett, 2009).
